Reference: patent US20070060551A1, “Methods of using isothiazole derivatives to treat cancer or inflammation” (QLT, Inc., priority 2002, published 2007)
Blank lines part the entries; values can stand above or below the compound they belong to.

Tests used:
PTPN12 = target: T1, PTPN12 (Homo sapiens, UniProt Q05209); experiment: PTPN12 in vitro phosphatase assay (malachite green phosphate release); format: biochemical; conditions: for % Inhibition of PTPN12: at 20 μm concentration
T1 construct: Expression of human truncated PTPN12 (PTP-PEST-N) as a fusion protein; made in house; host or cells: E. coli strain ER2566 (IMPACT vector pTWIN-II)
T1 sequence (Q05209 28-293 limits assumed): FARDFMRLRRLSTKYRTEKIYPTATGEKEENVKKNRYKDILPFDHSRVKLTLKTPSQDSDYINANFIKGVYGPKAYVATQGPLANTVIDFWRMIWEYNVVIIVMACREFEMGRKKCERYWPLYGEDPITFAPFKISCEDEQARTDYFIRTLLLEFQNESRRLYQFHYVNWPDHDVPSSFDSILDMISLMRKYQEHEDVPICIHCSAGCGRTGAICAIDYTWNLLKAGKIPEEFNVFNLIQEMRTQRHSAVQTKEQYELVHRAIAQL
Procedure: Expression of human truncated PTPN12 (PTP-PEST-N) as a fusion protein required that the cDNA be ligated into the polyclonal site situated in frame and upstream of the intein gene of the IMPACT™ expression vector pTWIN-II. The truncated version was used as it was far easier to handle and gave parallel results to the full length protein in comparison testing. For the purpose of simplicity, PTP-PEST-N will be used interchangeably with PTPN12 in these Examples.
Biochemical analysis is performed on recombinant human PTPN12 fusion protein. […] This activity is considered to be in the high range as compared to other recombinant protein tyrosine phosphatases. PTPN12 preparations were subsequently used extensively in in vitro assays for the initial discovery of compounds having the ability to inhibit PTPN12 activity.
Compounds were tested in the following assay for their ability to inhibit the activity of the desired phosphatase.
The enzyme (phosphatase) activity was determined in a reaction that measured phosphate relase from tyrosine phospho-specific peptides using a method first described by Harder et al., Biochem. J. (1994), Vol. 298, pp. 395-401. This is a non-radioactive method for measuring free phosphate by the malachite green method first described by Van Veldhoven and Mannaerts, Anal Biochem. (1987), Vol.161, pp. 45-48. 10× assay buffer (250 mM Tris:100 mM, β-Mercaptoethanol, 50 mM EDTA; pH 7.2) was diluted to 5× concentration with distilled H2O (dH2O). Then 71.4 μM of substrate working stock solution was prepared in dH2O.
In a Falcon 96 well plate the sample compound was diluted in 1% DMSO (One mL DMSO (Sigma, Cat. # D-8779) dissolved in 99 mL dH2O and stored at room temperature) such that the concentration of the sample compound working stock solution is ten times the final desired concentration of the compound in the assay.
The negative control consisted of 5 μl 1% DMSO and 35 μL substrate working stock solution and 10 μL diluted enzyme, per well), and was placed in the first column of wells on the plate. The last column of wells on the plate was reserved for an enzyme blank, which consisted of 5 μL 1% DMSO, 35 μL substrate working stock solution, and 10 μL 5× assay buffer, per well. Test samples were placed in columns 2-11 and consisted of 5 μL sample in 1% DMSO, 35 μL substrate working stock solution, and 10 μL of diluted enzyme, per well, at the desired concentration. Using the repeater function of a Biohit™ multichannel pipettor, 5 μL of 100 μM sample from the Falcon plate columns was added to corresponding Costar™ assay plate columns.
Using a multichannel pipettor, 35 μL of 71.4 μM ppC-SRC 60 substrate was added to all assay wells, then 10 μL of appropriately diluted enzyme was added to the wells on a column by column basis, pausing 5 seconds between columns. Timing started at the first addition.
The assay plate was incubated at room temperature (21° C.) for 15 minutes. The reaction was “stopped” by adding 100 μL colour reagent on a column by column basis, pausing 5 seconds between columns. Colour was allowed to develop for at least 15 minutes, but no longer than two hours, at room temperature. The plate was “read” on Bio-tek Instruments EL312e™ microplate Bio-Kinetics™ reader at 590 nm and the data collected as per instrument manual.
The blank and negative controls were read, and blanks were subtracted from the average of negative control values and sample values, and the % inhibition was expressed by the following formula: % Inhibition=100−[corrected sample reading/corrected Negative Control reading*100].

caspase-3 = target: T2, caspase-3 (Homo sapiens, UniProt P42574); experiment: Caspase-3 selectivity assay (Calbiochem kit, colorimetric); format: biochemical
T2 construct: purchased Calbiochem
T2 sequence (P42574 29-175 limits assumed): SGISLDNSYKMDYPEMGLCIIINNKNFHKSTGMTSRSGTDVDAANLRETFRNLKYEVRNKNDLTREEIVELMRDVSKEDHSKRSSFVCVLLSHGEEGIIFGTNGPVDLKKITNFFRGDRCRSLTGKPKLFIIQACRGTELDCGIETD
T2 sequence (P42574 176-277 limits assumed): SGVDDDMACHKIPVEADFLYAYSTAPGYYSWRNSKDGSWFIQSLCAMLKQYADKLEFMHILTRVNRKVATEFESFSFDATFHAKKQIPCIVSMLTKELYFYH
Source text: This is a selectivity assay, which provides information about the specificity of the compounds. A cysteine residue located within the active pocket of the catalytic domain that is conserved between the […] like caspase-3 and the protein tyrosine phosphatases like PTPN12 has a thiol group within this cysteine amino acid that may interact with specific R-groups with inhibiting compounds with in vitro enzyme inhibiting activity. Also, caspase inhibition can prevent apoptosis from occurring in some cases via the caspase cascade. As the potential for cross-inhibitory activity and nonselectivity exists, the caspase-3 assay is performed on PTN12 inhibitors.
The Calbiochem caspase-3 assay kit was utilized according to package insert instructions. The assay is useful for screening for caspase-3 inhibitors measuring the protease activity of caspase-3 and other caspase-3-like activities. Cleavage is monitored calorimetrically by measuring the increase in absorbance at 405 nm. Assays were performed in a 96-well microtiter plate format.

various cell lines = experiment: Cytotoxicity assay (calcein AM cell viability); format: cell-based; conditions: approximately 24 hours incubation
Source text: This procedure is used to assess the effects compounds have on various cell lines with respect to cell viability. Cell viability is quantified using calcein AM and measuring its conversion to a fluorescent product (calcein) with a fluorimeter.
The principle of this assay is based on the presence of ubiquitous intracellular esterase activity found in live cells. By enzymatic reaction of esterase, non-fluorescent cell-permeant calcein AM is converted to the intensely fluorescent calcein. The polyanionic dye calcein is retained within live cells, producing a green fluorescence in live cells. […]
Cells were collected from tissue culture flasks and trypsinized, centrifuged, resuspended and counted. […]
The calcein AM solution is prepared by added 50 μg of calcein AM crystal (m.w. =994.87 g/mol, Molecular Probes, Eugene, Oreg.) and Anhydrous DMSO (Sigma Aldrich) to make 1 mM stock and diluting stock to 2× the final desired concentration in 1× DPBS just before the assay. […] Fluorescence data was read and recorded (Fluoroskan Ascent® FL fluorimeter (excitation˜485nm, emission˜527nm)).
The values for replicates (usually six) are averaged and % inhibition is calculated as follows: % inhibition=100−[(AVG treatment−AVG positive control)/(AVG negative control−AVG positive control)*100]

% Inhibition of PTPN12 (PTPN12): 63%
SMILES: CS(=O)(=O)c1nsc(S(C)(=O)=O)c1C(=O)NC(=O)Nc1ccccc1Cl [1-(3,5-Bis-methanesulfonyl-isothiazole-4-carbonyl)-3-(2-chloro-phenyl)-urea]

% Inhibition of PTPN12 (PTPN12): 73%
SMILES: N#Cc1c(SCC(=O)Nc2ccc(S(N)(=O)=O)cc2)nsc1SCC(=O)Nc1ccc(S(N)(=O)=O)cc1 [2-{4-Cyano-3-[(4-sulfamoyl-phenylcarbamoyl)-methylsulfanyl]-isothiazol-5-ylsulfanyl}-N-(4-sulfamoyl-phenyl)-acetamide]

% Inhibition of PTPN12 (PTPN12): 60%
SMILES: CCS(=O)(=O)CCSc1nsc(SCCS(=O)(=O)CC)c1C#N [3,5-Bis-(2-ethanesulfonyl-ethylsulfanyl)-isothiazole-4-carbonitrile]

% Inhibition of Caspase 3 (caspase-3; at 10 μm): 4 at 10 μm %
% Inhibition of Caspase 3 (caspase-3; at 100 μm): 14 at 100 μm %
IC50 (PTPN12; PTPN12, unit inferred): 1500 nM
inhibition at 20 µM (PTPN12; at 20 μM (Table 2)): 94%
SMILES: CSc1nsc(SCc2ccccc2)c1C(N)=O [5-Benzylsulfanyl-3-methylsulfanyl-isothiazole-4-carboxylic acid amide]
cytotoxicity (cell viability, calcein AM) (various cell lines): no cytotoxicity

% Inhibition of PTPN12 (PTPN12): 51%
SMILES: CSc1nsc(SC)c1C(=O)N1CCCCC1 [(3,5-Bis-methylsulfanyl-isothiazol-4-yl)-piperidin-1-yl-methanone]
